Measurements from the NIST ThermoML archive (doi:10.1016/j.tca.2014.06.031).

Tests used:
[1] = Liquid; for speed of sound: Sing-around technique in a fixed-path interferometer; for mass density: Vibrating tube method
[2] = refractive index (Na D-line) (dimensionless); conditions: 101.33 kPa, Liquid, Standard Abbe refractometry
[3] = xn = mol fraction of the nth substance listed; conditions: 101 kPa, Liquid; for speed of sound: Frequency=3 MHz, Sing-around technique in a fixed-path interferometer; for mass density: Vibrating tube method
[4] = refractive index (Na D-line) (dimensionless); xn = mol fraction of the nth substance listed; conditions: 101 kPa, Liquid, Standard Abbe refractometry

CCO [ethanol]
Conditions	speed of sound [m/s]
[1], 298.15 K, 101 kPa, Frequency=3 MHz	1142.8

Conditions	mass density [kg/m3]
[1], 298.15 K, 101 kPa	785.24

Conditions	refractive index
[2], 298.15 K	1.35945

CCOC(=O)OCC [diethyl carbonate]
Conditions	speed of sound [m/s]
[1], 298.15 K, 101 kPa, Frequency=3 MHz	1176.6

Conditions	mass density [kg/m3]
[1], 298.15 K, 101 kPa	969.32

Conditions	refractive index
[2], 298.15 K	1.38249

CCCCC(=O)O [pentanoic acid]
[1], 101.33 kPa
Conditions	mass density [kg/m3]	speed of sound [m/s]
293.15 K	939.41	1234
298.15 K	934.85	1216
303.15 K	930.29	1197.9
308.15 K	925.73	1179.9
313.15 K	921.16	1162.1

[2]
Conditions	refractive index
293.15 K	1.4084
298.15 K	1.40641
303.15 K	1.40438
308.15 K	1.40234
313.15 K	1.4003

CCCCCCC(=O)O [heptanoic acid]
[1], 101.33 kPa
Conditions	mass density [kg/m3]	speed of sound [m/s]
293.15 K	917.65	1295.4
298.15 K	913.47	1277.7
303.15 K	909.29	1259.9
308.15 K	905.11	1242.2
313.15 K	900.94	1224.7

[2]
Conditions	refractive index
293.15 K	1.42336
298.15 K	1.42138
303.15 K	1.41935
308.15 K	1.41733
313.15 K	1.4153

CCCC(=O)O [butanoic acid] + CCCCC(=O)O
x1 = 1
Conditions	mass density, [3] [kg/m3]	refractive index, [4]	speed of sound, [3] [m/s]
293.15 K	957.78	1.39826	1195.5
298.15 K	952.81	1.3963	1176.9
303.15 K	947.94	1.39421	1158.2
308.15 K	942.92	1.39217	1139.7
313.15 K	938.05	1.3901	1121.3

CCO [ethanol] + CCOC(=O)OCC
298.15 K, x2 = 0
Conditions	mass density [kg/m3]	refractive index	speed of sound [m/s]
[3]	785.24	–	1142.8
[4]	–	1.35945	–

CCCC(=O)O [butanoic acid]
[1], 101.33 kPa
Conditions	mass density [kg/m3]	speed of sound [m/s]
293.15 K	957.78	1195.5
298.15 K	952.81	1176.9
303.15 K	947.94	1158.2
308.15 K	942.92	1139.7
313.15 K	938.05	1121.3

[2]
Conditions	refractive index
293.15 K	1.39826
298.15 K	1.3963
303.15 K	1.39421
308.15 K	1.39217
313.15 K	1.3901

CCOC(=O)OCC [diethyl carbonate] + CCO
298.15 K
Conditions	mass density, [3] [kg/m3]	refractive index, [4]	speed of sound, [3] [m/s]
x1 = 0.0415	800.3	1.36136	1145.2
x1 = 0.0943	817.71	1.36347	1147.3
x1 = 0.1932	845.85	1.36698	1150.9
x1 = 0.2929	869.58	1.36981	1154
x1 = 0.3938	889.96	1.37241	1156.9
x1 = 0.4965	907.82	1.3746	1159.8
x1 = 0.597	922.99	1.37647	1162.8
x1 = 0.6924	935.73	1.37805	1166
x1 = 0.7911	947.58	1.37957	1169.7
x1 = 0.899	959.27	1.38109	1173.7
x1 = 0.9413	963.58	1.38167	1175
x1 = 1	969.32	1.38249	1176.6

CCCCC(=O)O [pentanoic acid] + CCCCCCC(=O)O
x2 = 0
Conditions	mass density, [3] [kg/m3]	refractive index, [4]	speed of sound, [3] [m/s]
293.15 K	939.41	1.4084	1234
298.15 K	934.85	1.40641	1216
303.15 K	930.29	1.40438	1197.9
308.15 K	925.73	1.40234	1179.9
313.15 K	921.16	1.4003	1162.1
